# “Also recorded” adds a separate entry of the source. Where two headings read alike, the source gives them in different places.
# Columns and labels:
# [1] = test system: diabetes mellitus patients; assay: Acute kidney injury; type: in vivo, human; details: for Association with AKI, Unadjusted (95% CI) / Association with AKI, Adjusted (95% CI): metformin as reference; for Association with AKI, Adjusted (95% CI): multivariate; for Association with AKI compared to control drug metformin, in words: multivariate analysis; for Events During the 90 days (AKI): primary endpoint, first 90 days, patients above 55 years; for Total endpoint (AKI events): primary plus secondary endpoint; for Events at secondary end (AKI): secondary endpoint, after 90 days of hospital admission; for Total Percent (incidence rate of AKI at the end of the study): share of the 4966 total outcomes
# [2] = normal mice, oral gavage, 3mg/kg
# in vivo = details: male, ICR, mouse, po
# [3] = Endpoint Diagnosis with 1047 Outcome
# [4] = Secondary Diagnosis with 3919 Outcomes
structure (smiles),measurement,setting,value
"Cn1c(=O)cc(N2CCC[C@@H](N)C2)n(Cc2ccccc2C#N)c1=O [Alogliptin, alogliptin]","Association with AKI, Unadjusted (95% CI)",[1]; [3],1.83 (1.75–2.16)
same,"Association with AKI, Adjusted (95% CI)",[1]; [3],1.43 (1.31–2.04)
same,"Association with AKI, Unadjusted (95% CI)",[1]; [4],2.27 (1.08–3.12)
same,"Association with AKI, Adjusted (95% CI)",[1]; [4],2.85 (2.26–3.07)
same,"Association with AKI compared to control drug metformin, in words",[1],increased rate of AKI
same,Events During the 90 days (AKI),[1],91
same,Total endpoint (AKI events),[1],364
same,Events at secondary end (AKI),[1],273
same,Total Percent (incidence rate of AKI at the end of the study),[1],7.33%
same,"Drug concentration, time course","[2]; Kidney, 0h",0
same,"Drug concentration, time course","[2]; Kidney, 3h",6700
same,"Drug concentration, time course","[2]; Kidney, 6h",4300
same,"Drug concentration, time course","[2]; Kidney, 9h",2350
same,"Drug concentration, time course","[2]; Kidney, 12h",100
same,"Drug concentration, time course","[2]; Kidney, 15h",50
same,"Drug concentration, time course","[2]; Kidney, 18h",0
same,"Drug concentration, time course","[2]; Kidney, 21h",0
same,"Drug concentration, time course","[2]; Kidney, 24h",0
same,"Drug concentration, time course","[2]; Liver, 0h",0
same,"Drug concentration, time course","[2]; Liver, 3h",6340
same,"Drug concentration, time course","[2]; Liver, 6h",3500
same,"Drug concentration, time course","[2]; Liver, 9h",1980
same,"Drug concentration, time course","[2]; Liver, 12h",300
same,"Drug concentration, time course","[2]; Liver, 15h",100
same,"Drug concentration, time course","[2]; Liver, 18h",0
same,"Drug concentration, time course","[2]; Liver, 21h",0
same,"Drug concentration, time course","[2]; Liver, 24h",0
same,"Drug concentration, time course","[2]; Plasma, 0h",0
same,"Drug concentration, time course","[2]; Plasma, 3h",400
same,"Drug concentration, time course","[2]; Plasma, 6h",250
same,"Drug concentration, time course","[2]; Plasma, 9h",50
same,"Drug concentration, time course","[2]; Plasma, 12h",0
same,"Drug concentration, time course","[2]; Plasma, 15h",0
same,"Drug concentration, time course","[2]; Plasma, 18h",0
same,"Drug concentration, time course","[2]; Plasma, 21h",0
same,"Drug concentration, time course","[2]; Plasma, 24h",0
same,Tmax,in vivo,1 h
same,Tmax,in vivo; 3 mg/kg,1 h
same,Cmax,"in vivo; 3 mg/kg, oral gavage, Kidney",8.56 µg/mL
same,Cmax,"in vivo; 3 mg/kg, oral gavage, Liver",6.73 µg/mL
same,Cmax,"in vivo; 3 mg/kg, oral gavage, Plasma",0.943 µg/mL
same,half-life,"in vivo; 3 mg/kg, t1/2",2.4 h
"CC1(C)S[C@@H]2[C@H](NC(=O)[C@H](N)c3ccc(O)cc3)C(=O)N2[C@H]1C(=O)O [Amoxicillin, amoxicillin]","Association with AKI, Unadjusted (95% CI)",[1]; [3],1.73 (1.16–1.85)
same,"Association with AKI, Adjusted (95% CI)",[1]; [3],1.36 (1.06–1.54)
same,"Association with AKI, Unadjusted (95% CI)",[1]; [4],1.17 (0.88–1.43)
same,"Association with AKI, Adjusted (95% CI)",[1]; [4],1.34 (1.07–1.82)
same,Events During the 90 days (AKI),[1],48
same,Total endpoint (AKI events),[1],293
same,Events at secondary end (AKI),[1],245
same,Total Percent (incidence rate of AKI at the end of the study),[1],5.9%
same,"Drug concentration, time course","[2]; Kidney, 0h",9860
same,"Drug concentration, time course","[2]; Kidney, 3h",7320
same,"Drug concentration, time course","[2]; Kidney, 6h",5670
same,"Drug concentration, time course","[2]; Kidney, 9h",2340
same,"Drug concentration, time course","[2]; Kidney, 12h",730
same,"Drug concentration, time course","[2]; Kidney, 15h",60
same,"Drug concentration, time course","[2]; Kidney, 18h",0
same,"Drug concentration, time course","[2]; Kidney, 21h",0
same,"Drug concentration, time course","[2]; Kidney, 24h",0
same,"Drug concentration, time course","[2]; Liver, 0h","12,110"
same,"Drug concentration, time course","[2]; Liver, 3h",8700
same,"Drug concentration, time course","[2]; Liver, 6h",5470
same,"Drug concentration, time course","[2]; Liver, 9h",1350
same,"Drug concentration, time course","[2]; Liver, 12h",200
same,"Drug concentration, time course","[2]; Liver, 15h",30
same,"Drug concentration, time course","[2]; Liver, 18h",0
same,"Drug concentration, time course","[2]; Liver, 21h",0
same,"Drug concentration, time course","[2]; Liver, 24h",0
same,"Drug concentration, time course","[2]; Plasma, 0h",370
same,"Drug concentration, time course","[2]; Plasma, 3h",80
same,"Drug concentration, time course","[2]; Plasma, 6h",45
same,"Drug concentration, time course","[2]; Plasma, 9h",0
same,"Drug concentration, time course","[2]; Plasma, 12h",0
same,"Drug concentration, time course","[2]; Plasma, 15h",0
same,"Drug concentration, time course","[2]; Plasma, 18h",0
same,"Drug concentration, time course","[2]; Plasma, 21h",0
same,"Drug concentration, time course","[2]; Plasma, 24h",0
same,Tmax,in vivo,1 h
same,Tmax,in vivo; 3 mg/kg,1 h
same,Cmax,"in vivo; 3 mg/kg, oral gavage, Kidney",4.51 µg/mL
same,Cmax,"in vivo; 3 mg/kg, oral gavage, Liver",3.98 µg/mL
same,Cmax,"in vivo; 3 mg/kg, oral gavage, Plasma",0.945 µg/mL
same,half-life,"in vivo; 3 mg/kg, t1/2",1.6 h
"Cc1ccc(-c2cc(C(F)(F)F)nn2-c2ccc(S(N)(=O)=O)cc2)cc1 [Celecoxib, celecoxib]","Association with AKI, Unadjusted (95% CI)",[1]; [3],2.95 (2.68–3.25)
same,"Association with AKI, Adjusted (95% CI)",[1]; [3],2.32 (2.12–2.68)
same,"Association with AKI, Unadjusted (95% CI)",[1]; [4],1.87 (1.64–2.43)
same,"Association with AKI, Adjusted (95% CI)",[1]; [4],1.86 (1.53–2.77)
same,"Association with AKI compared to control drug metformin, in words",[1],increased rate of AKI; also recorded: higher risk for AKI
same,Events During the 90 days (AKI),[1],112
same,Total endpoint (AKI events),[1],533
same,Events at secondary end (AKI),[1],421
same,Total Percent (incidence rate of AKI at the end of the study),[1],10.72%
same,"Drug concentration, time course","[2]; Kidney, 0h",0
same,"Drug concentration, time course","[2]; Kidney, 3h","10,340"
same,"Drug concentration, time course","[2]; Kidney, 6h",8900
same,"Drug concentration, time course","[2]; Kidney, 9h",6480
same,"Drug concentration, time course","[2]; Kidney, 12h",2100
same,"Drug concentration, time course","[2]; Kidney, 15h",450
same,"Drug concentration, time course","[2]; Kidney, 18h",0
same,"Drug concentration, time course","[2]; Kidney, 21h",0
same,"Drug concentration, time course","[2]; Kidney, 24h",0
same,"Drug concentration, time course","[2]; Liver, 0h",0
same,"Drug concentration, time course","[2]; Liver, 3h","13,200"
same,"Drug concentration, time course","[2]; Liver, 6h",9800
same,"Drug concentration, time course","[2]; Liver, 9h",6250
same,"Drug concentration, time course","[2]; Liver, 12h",2300
same,"Drug concentration, time course","[2]; Liver, 15h",400
same,"Drug concentration, time course","[2]; Liver, 18h",50
same,"Drug concentration, time course","[2]; Liver, 21h",0
same,"Drug concentration, time course","[2]; Liver, 24h",0
same,"Drug concentration, time course","[2]; Plasma, 0h",0
same,"Drug concentration, time course","[2]; Plasma, 3h",250
same,"Drug concentration, time course","[2]; Plasma, 6h",50
same,"Drug concentration, time course","[2]; Plasma, 9h",30
same,"Drug concentration, time course","[2]; Plasma, 12h",0
same,"Drug concentration, time course","[2]; Plasma, 15h",0
same,"Drug concentration, time course","[2]; Plasma, 18h",0
same,"Drug concentration, time course","[2]; Plasma, 21h",0
same,"Drug concentration, time course","[2]; Plasma, 24h",0
same,Tmax,in vivo,0.5 h
same,Tmax,in vivo; 3 mg/kg,0.5 h
same,Cmax,"in vivo; 3 mg/kg, oral gavage, Kidney",12.1 µg/mL
same,Cmax,"in vivo; 3 mg/kg, oral gavage, Liver",11.7 µg/mL
same,Cmax,"in vivo; 3 mg/kg, oral gavage, Plasma",0.983 µg/mL
same,half-life,"in vivo; 3 mg/kg, t1/2, mouse, oral gavage, Kidney",4.5 h
same,half-life,"in vivo; 3 mg/kg, t1/2, mouse, oral gavage, Liver",3.6 h
same,half-life,"in vivo; 3 mg/kg, t1/2, mouse, oral gavage, Plasma",2.4 h

# From PMC8053501 (Diabetes, Metabolic Syndrome and Obesity: Targets and …, 2021)
